Experimental data from publication PMC7076710, “Synthesis, Identification, and Structure–Activity Relationship Analysis of GATA4 and NKX2-5 Protein–Protein Interaction Modulators” (Journal of Medicinal Chemistry, 2019).
One block for each compound: values may come before it.

Biological target: T1, GATA4 transcriptional activity (Mus musculus, UniProt Q08369)
T1 construct: expressed in transfected cells; host or cells: COS-1
Experiment: GATA4 luciferase reporter assay (tandem GATA-site reporter, COS-1 cells)
Format: cell-based
Details: for activity at 3 µM: COS-1; for GATA4 (% of control) Mean ± SD: 10 μM, COS-1 cells, 24 h

[1] = 3 µM, luciferase reporter activity, % of control
[2] = 3 µM, luciferase reporter activity relative to control

T1 sequence (Q08369 whole entry): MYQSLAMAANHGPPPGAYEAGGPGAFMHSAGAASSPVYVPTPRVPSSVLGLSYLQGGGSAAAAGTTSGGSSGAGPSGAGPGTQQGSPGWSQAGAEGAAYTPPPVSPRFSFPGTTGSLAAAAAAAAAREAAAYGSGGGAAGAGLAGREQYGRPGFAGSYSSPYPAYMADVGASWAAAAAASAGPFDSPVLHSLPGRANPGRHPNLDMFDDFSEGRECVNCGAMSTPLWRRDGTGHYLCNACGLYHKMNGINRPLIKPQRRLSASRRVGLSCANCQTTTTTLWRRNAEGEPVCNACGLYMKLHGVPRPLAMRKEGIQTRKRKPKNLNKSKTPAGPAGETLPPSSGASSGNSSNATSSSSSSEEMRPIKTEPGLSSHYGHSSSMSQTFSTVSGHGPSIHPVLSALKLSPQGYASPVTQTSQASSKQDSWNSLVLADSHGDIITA

Compound: Cc1onc(-c2ccccc2)c1C(=O)N(C1=NC(C)CS1)c1ccc(Cl)cc1 (stereo not shown) [Compound 2]
- activity at 3 µM [1]: 145%

Compound: CCN(CC)c1ccc(NC(=O)c2c(-c3ccccc3)noc2C)cc1 [Compound 1, N-[4-(Diethylamino)phenyl]-5-methyl-3-phenylisoxazole-4-carboxamide]
- activity at 3 µM [1]: 92.1%

Compound: COc1ccc(-c2cc(NC(=O)c3ccc(C(C)(C)C)cc3)n[nH]2)cc1 [Compound 72]
- GATA4 (% of control) Mean ± SD: 40 % of control
- activity at 3 µM [2]: 70.5%

Compound: CCC(=O)N(Cc1ccc(N(CC)CC)cc1)c1c(-c2ccccc2)noc1C [Compound 58]
- activity at 3 µM [2]: 70.3%

Results, then the compound that gave them:

- activity at 3 µM [2]: 128%
Compound: CCN(CC)c1ccc(NC(=O)c2cnsc2)cc1 [Compound 47s]

- activity at 3 µM [2]: 46.9%
Compound: Cc1onc(-c2ccccc2)c1COc1ccc(C(=O)OCCC#N)cc1 [Compound 35a, 2-Cyanoethyl 4-[(5-Methyl-3-phenylisoxazol-4-yl)methoxy]benzoate]

- GATA.3µM [2]: 61.94
- GATA4 (% of control) Mean ± SD: 68 ± 9.1 % of control
- GATA.10µM (10 µM, luciferase reporter activity relative to control): 68.28
Compound: N-[4-(Diethylamino)phenyl]-3-methyl-5-(4-methyl-1,2,3-thiadiazol-5-yl)isoxazole-4-carboxamide [Compound 47c]
